Read-outs that look alike come from different tables or passages of the source.
Experiments:
KRAS G13C = KRAS G13C (Homo sapiens, UniProt P01116+P62937, G13C); test: Disruption of BRAF RBD interaction with Ras (FRET / MOA assay, with Cyclophilin A); format: biochemical
In short: (§1)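 IC50 values reflect loss of K-Ras binding to BRAF RBD, read as a lowered TR-FRET ratio compared with DMSO, driven by compound-mediated K-Ras:Cyclophilin A complex formation. Compound top dose 30 μM final, 3-fold steps, 3 h incubation at 25 °C before a 1.5 h antibody step.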

KRAS G12V = KRAS G12V (Homo sapiens, UniProt P01116+P62937, G12V); test: as above; format: biochemical
In short: as §1

KRAS G12D = KRAS G12D (Homo sapiens, UniProt P01116+P62937, G12D); test: as above; format: biochemical
In short: as §1

NRAS G12C = NRAS G12C (Homo sapiens, UniProt P01111+P62937, G12C); test: as above; format: biochemical
KRAS G12C = KRAS G12C (Homo sapiens, UniProt P01116+P62937, G12C); test: as above; format: biochemical
In short: as §1

KRAS G13D = KRAS G13D (Homo sapiens, UniProt P01116+P62937, G13D); test: as above; format: biochemical
In short: as §1

KRAS WT = KRAS WT (Homo sapiens, UniProt P01116+P62937); test: as above; format: biochemical
In short: as §1

KRAS G12S = KRAS G12S (Homo sapiens, UniProt P01116+P62937, G12S); test: as above; format: biochemical
In short: as §1

KRAS Q61H = KRAS Q61H (Homo sapiens, UniProt P01116+P62937, Q61H); test: as above; format: biochemical; settings: KRAS Q61H; read-out: KRAS Q61H FRET data IC50
In short: (§2)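 TR-FRET in 25 mM HEPES pH 7.3, 100 mM NaCl, 5 mM MgCl2, 0.1% BSA: 25 μM Cyclophilin A, 12.5 nM His6-Ras-GMPPNP, 50 nM GST-BRAF RBD with compound (10-point 3-fold series from 30 μM), 3 h at 25° C. Anti-His Eu/anti-GST APC added, 1.5 h more; IC50 from decreased FRET ratio versus DMSO.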

NRAS Q61R = NRAS Q61R (Homo sapiens, UniProt P01111+P62937, Q61R); test: as above; format: biochemical; settings: NRAS Q61R; read-out: NRAS Q61R FRET data IC50
In short: as §2

NRAS Q61K = NRAS Q61K (Homo sapiens, UniProt P01111+P62937, Q61K); test: as above; format: biochemical; settings: NRAS Q61K; read-out: NRAS Q61K FRET data IC50
In short: as §2

NCI-H358 (K-Ras G12C) = test: CellTiter-Glo cell viability assay, 5-day treatment; format: cell-based; settings: Homo sapiens, NCI-H358, H358, K-Ras G12C; read-out: Additional H358 Cell Viability assay data (K-Ras G12C, IC50)
In short: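 Luminescence read-out after 5 days of compound exposure, with plates first brought to room temperature for roughly 30 minutes. Values are percent of averaged DMSO wells, fitted by four-parameter logistic regression.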

[1] = KRAS G13C, read-out: KRAS G13C FRET data IC50
[2] = KRAS G12V, read-out: KRAS G12V FRET data IC50
[3] = read-out: KRAS G12D FRET data, IC50
[4] = NRAS G12C, read-out: NRAS G12C FRET data IC50
[5] = KRAS G12C, read-out: KRAS G12C FRET data IC50
[6] = KRAS G13D, read-out: KRAS G13D FRET data IC50
[7] = KRAS WT, read-out: KRAS WT FRET data IC50
[8] = read-out: KRAS G12S FRET data, IC50

Sequence of NRAS G12C (P01111 whole entry G12C): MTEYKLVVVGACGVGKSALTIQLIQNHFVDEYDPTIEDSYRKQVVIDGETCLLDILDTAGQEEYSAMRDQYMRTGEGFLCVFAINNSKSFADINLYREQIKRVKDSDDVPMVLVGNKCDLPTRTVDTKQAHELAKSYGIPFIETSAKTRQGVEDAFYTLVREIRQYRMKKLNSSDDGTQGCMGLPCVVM
Sequence of NRAS G12C (P62937 whole entry): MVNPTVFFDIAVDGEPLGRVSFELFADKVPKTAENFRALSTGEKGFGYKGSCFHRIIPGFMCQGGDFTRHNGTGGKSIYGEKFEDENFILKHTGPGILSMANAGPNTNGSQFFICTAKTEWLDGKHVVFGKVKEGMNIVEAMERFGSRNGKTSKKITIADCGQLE
Sequence of KRAS WT (P01116 1-169 isoform P01116-2 limits assumed): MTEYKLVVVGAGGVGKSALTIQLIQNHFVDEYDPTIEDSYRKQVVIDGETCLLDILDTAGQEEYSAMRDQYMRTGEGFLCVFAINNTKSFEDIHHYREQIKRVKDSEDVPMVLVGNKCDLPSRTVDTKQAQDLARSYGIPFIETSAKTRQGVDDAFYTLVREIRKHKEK
Sequence of KRAS WT (P62937 whole entry): as the sequence (P62937 whole entry) above
Sequence of KRAS G13D (P01116 1-169 isoform P01116-2 G13D limits assumed): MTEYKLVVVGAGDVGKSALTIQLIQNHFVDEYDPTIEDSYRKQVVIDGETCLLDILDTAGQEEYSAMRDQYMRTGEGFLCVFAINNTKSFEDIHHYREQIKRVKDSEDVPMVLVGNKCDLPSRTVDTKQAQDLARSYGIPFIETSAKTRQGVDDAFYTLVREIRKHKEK
Sequence of KRAS G13D (P62937 whole entry): as the sequence (P62937 whole entry) above
Sequence of KRAS G12C (P01116 1-169 isoform P01116-2 G12C): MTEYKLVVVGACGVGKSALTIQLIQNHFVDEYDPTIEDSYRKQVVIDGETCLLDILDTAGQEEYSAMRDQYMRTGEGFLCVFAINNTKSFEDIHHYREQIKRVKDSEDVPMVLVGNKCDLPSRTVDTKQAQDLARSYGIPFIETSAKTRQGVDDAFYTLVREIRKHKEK
Sequence of KRAS G12C (P62937 whole entry): as the sequence (P62937 whole entry) above
Sequence of KRAS G13C (P01116 1-169 isoform P01116-2 G13C): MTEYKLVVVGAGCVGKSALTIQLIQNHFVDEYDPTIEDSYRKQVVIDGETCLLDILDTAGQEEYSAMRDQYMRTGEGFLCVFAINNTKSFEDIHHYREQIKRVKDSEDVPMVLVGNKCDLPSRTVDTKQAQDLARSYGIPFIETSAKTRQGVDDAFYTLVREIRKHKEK
Sequence of KRAS G13C (P62937 whole entry): as the sequence (P62937 whole entry) above
Sequence of KRAS G12S (P01116 1-169 isoform P01116-2 G12S limits assumed): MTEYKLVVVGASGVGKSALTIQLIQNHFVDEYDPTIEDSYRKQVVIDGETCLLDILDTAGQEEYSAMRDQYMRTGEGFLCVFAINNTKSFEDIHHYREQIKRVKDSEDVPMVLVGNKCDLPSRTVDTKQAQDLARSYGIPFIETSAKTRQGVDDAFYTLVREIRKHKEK
Sequence of KRAS G12S (P62937 whole entry): as the sequence (P62937 whole entry) above
Sequence of KRAS Q61H (P01116 1-169 isoform P01116-2 Q61H limits assumed): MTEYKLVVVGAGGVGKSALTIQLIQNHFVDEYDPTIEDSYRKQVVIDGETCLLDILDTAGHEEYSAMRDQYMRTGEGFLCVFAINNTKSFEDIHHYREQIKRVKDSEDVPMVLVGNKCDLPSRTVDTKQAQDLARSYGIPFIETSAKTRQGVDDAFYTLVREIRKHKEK
Sequence of KRAS Q61H (P62937 whole entry): as the sequence (P62937 whole entry) above
Sequence of NRAS Q61R (P01111 whole entry Q61R): as the sequence (P01111 whole entry G12C) above, with C12G, Q61R counted along it
Sequence of NRAS Q61R (P62937 whole entry): as the sequence (P62937 whole entry) above
Sequence of KRAS G12D (P01116 1-169 isoform P01116-2 G12D limits assumed): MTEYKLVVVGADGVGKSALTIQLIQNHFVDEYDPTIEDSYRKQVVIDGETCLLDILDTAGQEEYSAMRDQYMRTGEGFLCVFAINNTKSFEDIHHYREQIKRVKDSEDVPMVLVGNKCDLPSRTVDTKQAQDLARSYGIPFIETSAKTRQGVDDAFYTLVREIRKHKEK
Sequence of KRAS G12D (P62937 whole entry): as the sequence (P62937 whole entry) above
Sequence of KRAS G12V (P01116 1-169 isoform P01116-2 G12V limits assumed): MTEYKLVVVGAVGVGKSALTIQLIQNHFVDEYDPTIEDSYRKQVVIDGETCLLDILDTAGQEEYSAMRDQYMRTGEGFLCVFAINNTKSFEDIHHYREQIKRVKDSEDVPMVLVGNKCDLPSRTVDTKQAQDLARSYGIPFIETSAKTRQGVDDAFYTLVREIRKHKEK
Sequence of KRAS G12V (P62937 whole entry): as the sequence (P62937 whole entry) above
Sequence of NRAS Q61K (P01111 whole entry Q61K): as the sequence (P01111 whole entry G12C) above, with C12G, Q61K counted along it
Sequence of NRAS Q61K (P62937 whole entry): as the sequence (P62937 whole entry) above

| SMILES | IC50 (KRAS G13C; [1]) | IC50 (KRAS G12V; [2]) | IC50 (KRAS G12D; [3]) | IC50 (NRAS G12C; [4]) | IC50 (KRAS G12C; [5]) | IC50 (KRAS G13D; [6]) | IC50 (KRAS WT; [7]) | IC50 (KRAS G12S; [8]) | IC50 (KRAS Q61H) | IC50 (NRAS Q61R) | IC50 (NRAS Q61K) | IC50 (NCI-H358 (K-Ras G12C)) | IC50 (KRAS G13C; KRAS G13C FRET data IC50, KRAS G13C) | IC50 (KRAS G12V; KRAS G12V FRET data IC50, KRAS G12V) | IC50 (KRAS G12D; KRAS G12D FRET data, IC50) | IC50 (NRAS G12C; NRAS G12C FRET data IC50, NRAS G12C) | IC50 (KRAS G12C; KRAS G12C FRET data IC50, KRAS G12C) | IC50 (KRAS G13D; KRAS G13D FRET data IC50, KRAS G13D) | IC50 (KRAS WT; KRAS WT FRET data IC50, KRAS WT) | IC50 (KRAS G12S; KRAS G12S FRET data, IC50) |
| --- | --- | --- | --- | --- | --- | --- | --- | --- | --- | --- | --- | --- | --- | --- | --- | --- | --- | --- | --- | --- |
| CCn1c(-c2cccnc2[C@H](C)OC)c2c3cc(ccc31)N1CCO[C@@](C)(CC(NC(=O)[C@H](C(C)C)N(C)C(=O)C3(F)CCN(C(=O)C#CC(C)(C)N(C)C)CC3)C(=O)N3CCC[C@H](N3)C(=O)OCC(C)(C)C2)C1 (stereo partly drawn) [Example A550] | 100 to 1000 nM | 100 to 1000 nM | 1000 to 10000 nM | < 10 nM | < 10 nM | 1000 to 10000 nM | 100 to 1000 nM | 1000 to 10000 nM | 1000 to 10000 nM | 1000 to 10000 nM | 1000 to 10000 nM | < 10 nM | – | – | – | – | – | – | – | – |
| C=CC(=O)N1CCO[C@H]2CN(C(=O)N(C)[C@H](C(=O)N[C@H]3CN4CCC=C(C4)c4ccc5c(c4)c(c(-c4cccnc4[C@H](C)OC)n5CC)CC(C)(C)COC(=O)[C@@H]4CCCN(N4)C3=O)C(C)C)C[C@H]21 [Example A552] | 10 to 100 nM | 1000 to 10000 nM | 1000 to 10000 nM | 10 to 100 nM | 10 to 100 nM | 1000 to 10000 nM | 100 to 1000 nM | 1000 to 10000 nM | 100 to 1000 nM | 1000 to 10000 nM | 1000 to 10000 nM | < 10 nM | – | – | – | – | – | – | – | – |
| CCn1c(-c2cccnc2[C@H](C)OC)c2c3cc(ccc31)-c1cccc(c1)C[C@H](NC(=O)[C@H](C(C)C)N1CC[C@]3(CCN(C(=O)C#C[C@]4(N(C)C)CCOC4)C3)C1=O)C(=O)N1CCC[C@H](N1)C(=O)OCC(C)(C)C2 [Example A559] | 100 to 1000 nM | 1000 to 10000 nM | 1000 to 10000 nM | 10 to 100 nM | 10 to 100 nM | 1000 to 10000 nM | 1000 to 10000 nM | 1000 to 10000 nM | 100 to 1000 nM | 1000 to 10000 nM | 1000 to 10000 nM | < 10 nM | – | – | – | – | – | – | – | – |
| C=CC(=O)N1CCOC2(CCN(C(=O)N(C)[C@H](C(=O)N[C@H]3CN4CCC=C(C4)c4ccc5c(c4)c(c(-c4cccnc4[C@H](C)OC)n5CC)CC(C)(C)COC(=O)[C@@H]4CCCN(N4)C3=O)C(C)C)CC2)C1 [Example A563] | 100 to 1000 nM | 1000 to 10000 nM | > 10000 nM | 100 to 1000 nM | 100 to 1000 nM | 1000 to 10000 nM | 1000 to 10000 nM | 1000 to 10000 nM | 1000 to 10000 nM | > 10000 nM | 1000 to 10000 nM | 100 to 1000 nM | – | – | – | – | – | – | – | – |
| CCn1c(-c2cccnc2[C@H](C)OC)c2c3cc(ccc31)-c1cccc(c1)C[C@H](NC(=O)[C@H](C(C)C)N1CC[C@]3(CCN(C(=O)C#C[C@@H]4COCCN4C4COC4)C3)C1=O)C(=O)N1CCC[C@H](N1)C(=O)OCC(C)(C)C2 [Example A565] | 1000 to 10000 nM | 1000 to 10000 nM | > 10000 nM | 100 to 1000 nM | 100 to 1000 nM | > 10000 nM | > 10000 nM | 1000 to 10000 nM | 1000 to 10000 nM | > 10000 nM | > 10000 nM | 10 to 100 nM | – | – | – | – | – | – | – | – |
| CCn1c(-c2cccnc2[C@H](C)OC)c2c3cc(ccc31)-c1cccc(c1)C[C@H](NC(=O)[C@@H](CN1CC[C@]3(CCN(C(=O)C#C[C@H]4COCCN4C)C3)C1=O)C(C)C)C(=O)N1CCCC(N1)C(=O)OCC(C)(C)C2 (stereo partly drawn) [Example A592] | 1000 to 10000 nM | 1000 to 10000 nM | > 10000 nM | 10 to 100 nM | 10 to 100 nM | > 10000 nM | > 10000 nM | 1000 to 10000 nM | 1000 to 10000 nM | > 10000 nM | > 10000 nM | < 10 nM | – | – | – | – | – | – | – | – |
| C=CC(=O)N1CCO[C@@]2(CCN(C(=O)N(C)[C@H](C(=O)N[C@H]3Cc4nc(cs4)-c4ccc5c(c4)c(c(-c4cccnc4[C@H](C)OC)n5CC(F)(F)F)CC(C)(C)COC(=O)C4CCCN(N4)C3=O)C(C)C)C2)C1 (stereo partly drawn) [Example A594] | – | – | – | – | – | – | – | – | 10 to 100 nM | 10 to 100 nM | 10 to 100 nM | < 10 nM | 10 to 100 nM | 100 to 1000 nM | 100 to 1000 nM | 10 to 100 nM | 10 to 100 nM | 100 to 1000 nM | 10 to 100 nM | 100 to 1000 nM |
| C=CC(=O)N1CCO[C@H]2CN(C(=O)N(C)[C@H](C(=O)N[C@H]3Cc4cccc(n4)-c4ccc5c(c4)c(c(-c4cccnc4[C@H](C)OC)n5CC(F)(F)F)CC(C)(C)COC(=O)C4CCCN(N4)C3=O)C(C)C)C[C@H]21 (stereo partly drawn) [Example A595] | 10 to 100 nM | 1000 to 10000 nM | 1000 to 10000 nM | 10 to 100 nM | 10 to 100 nM | 1000 to 10000 nM | 100 to 1000 nM | 1000 to 10000 nM | 100 to 1000 nM | 100 to 1000 nM | 100 to 1000 nM | < 10 nM | – | – | – | – | – | – | – | – |
| C=CC(=O)N1CCC2(C1)CN(C(=O)N(C)[C@H](C(=O)N[C@H]1Cc3nc(cs3)-c3ccc4c(c3)c(c(-c3cccnc3[C@H](C)OC)n4CC(F)(F)F)CC(C)(C)COC(=O)C3CCCN(N3)C1=O)C(C)C)C2 (stereo partly drawn) [Example A603] | 10 to 100 nM | 100 to 1000 nM | 100 to 1000 nM | 10 to 100 nM | 10 to 100 nM | 100 to 1000 nM | 10 to 100 nM | 100 to 1000 nM | 10 to 100 nM | 10 to 100 nM | 10 to 100 nM | 10 to 100 nM | – | – | – | – | – | – | – | – |
| C=CC(=O)N1CCOC2(CCN(C(=O)N(C)[C@H](C(=O)N[C@H]3Cc4cc(CF)cc(c4)-c4ccc5c(c4)c(c(-c4cccnc4[C@H](C)OC)n5CC(F)(F)F)CC(C)(C)COC(=O)C4CCCN(N4)C3=O)C(C)C)CC2)C1 (stereo partly drawn) [Example A605] | 10 to 100 nM | 100 to 1000 nM | 100 to 1000 nM | 100 to 1000 nM | 100 to 1000 nM | 100 to 1000 nM | 10 to 100 nM | 100 to 1000 nM | 10 to 100 nM | 100 to 1000 nM | 100 to 1000 nM | 10 to 100 nM | – | – | – | – | – | – | – | – |
